Data taken from patent publication US20080249042A1, “All-Trans-Retinol: All-Trans-13,14-Dihydroretinol Saturase and Methods of Its Use” (UNIVERSITY OF WASHINGTON, priority 2004, published 2008).

Tests used:
mouse RXR-α = molecular target: T1, mouse RXR-α (Mus musculus, UniProt P28700); assay: RXRE (DR1) activation assay, HEK-293S cells with pRXRE-BLUE and RXR-α; assay type: cell-based; settings: cotransfected with mouse RXR-α, 48 h
T1 construct: The RXR-α open reading frame was then subcloned into the pcDNA3.1 Directional TOPO vector; expressed in transfected cells; host or cells: N-acetylglucosaminyltransferase I-negative HEK-293S
T1 sequence (P28700 1-467): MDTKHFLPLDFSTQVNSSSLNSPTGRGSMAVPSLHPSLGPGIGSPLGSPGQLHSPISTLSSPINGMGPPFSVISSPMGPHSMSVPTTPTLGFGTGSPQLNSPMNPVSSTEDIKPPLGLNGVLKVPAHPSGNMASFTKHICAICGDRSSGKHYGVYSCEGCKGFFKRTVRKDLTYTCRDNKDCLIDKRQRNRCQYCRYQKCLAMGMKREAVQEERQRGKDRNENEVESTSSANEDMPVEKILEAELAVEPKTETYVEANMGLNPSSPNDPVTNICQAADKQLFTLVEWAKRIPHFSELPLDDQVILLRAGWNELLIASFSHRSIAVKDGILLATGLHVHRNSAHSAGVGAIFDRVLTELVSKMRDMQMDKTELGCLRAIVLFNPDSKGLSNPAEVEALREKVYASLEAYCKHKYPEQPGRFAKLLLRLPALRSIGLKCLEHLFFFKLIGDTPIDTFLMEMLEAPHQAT

mouse RetSat = molecular target: T2, mouse RetSat (Mus musculus, UniProt Q64FW2); assay: Saturase activity in homogenized HEKK-RetSat cells; assay type: biochemical; settings: membrane homogenate, 40 μM substrate, 1 hr
T2 construct: expressed in transfected cells
T2 sequence (Q64FW2 26-609): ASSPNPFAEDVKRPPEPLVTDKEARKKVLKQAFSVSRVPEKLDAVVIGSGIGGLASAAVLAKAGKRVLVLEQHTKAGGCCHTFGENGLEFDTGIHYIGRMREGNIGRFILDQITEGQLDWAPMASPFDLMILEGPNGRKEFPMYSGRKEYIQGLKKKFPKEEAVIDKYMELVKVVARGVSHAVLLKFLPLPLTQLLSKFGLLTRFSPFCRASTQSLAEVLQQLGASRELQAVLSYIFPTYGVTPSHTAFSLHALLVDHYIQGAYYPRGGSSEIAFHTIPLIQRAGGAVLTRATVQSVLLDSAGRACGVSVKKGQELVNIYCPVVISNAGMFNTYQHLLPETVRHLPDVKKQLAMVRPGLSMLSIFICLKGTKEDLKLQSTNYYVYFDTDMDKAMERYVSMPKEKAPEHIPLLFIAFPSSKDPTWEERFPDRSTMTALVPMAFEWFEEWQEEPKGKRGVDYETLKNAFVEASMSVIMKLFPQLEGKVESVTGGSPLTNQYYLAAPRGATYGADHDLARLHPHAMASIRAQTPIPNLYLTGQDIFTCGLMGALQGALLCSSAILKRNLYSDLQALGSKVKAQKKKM
Experimental: Enzymatic assays for saturase activity in homogenized cells. Cells were homogenized with 15 mM Tris-HCl, pH 8.0, containing 10 mM dithiothreitol and 0.32 M sucrose. One aliquot of cells was boiled for 10 min at 95° C. as a negative control. Cell aliquots of 200 μl were supplemented with 1 mM ATP and 40 μM all-trans-retinol final concentrations. Some aliquots were also supplemented with 0.4 mM NADH or 0.4 mM NADPH to regenerate the redox state of the reaction. The cell homogenate was incubated with retinol substrate with shaking at 37° C. for 1 hr in the dark. This was followed by the extraction of retinoids with one volume of methanol and two volumes of hexane. The organic phase was dried and resuspended in hexane and then examined by normal-phase HPLC.

| SMILES | Activation of RXR-mediated transcription (DR1 elements) (mouse RXR-α) | all-trans-13,14-dihydroretinol produced (mouse RetSat) |
| --- | --- | --- |
| CC1=C(/C=C/C(C)=C/C=C/C(C)CC(=O)O)C(C)(C)CCC1 (stereo not drawn) [all-trans-DRA, all-trans-13,14-dihydroretinoic acid] | very weak RXR activator | – |
| CC1=C(/C=C/C(C)=C/C=C/C(C)=C/CO)C(C)(C)CCC1 [all-trans-ROL, all-trans-retinol] | – | little |
